For one test, the system named is HT-29. The test is described as follows: Cytotoxicity against human HT-29 cells after 48 hrs by MTT assay. It is filed as functional, cell-based. Conditions: HT-29, 48 h. (In general: Tetrazolium dyes change colour on reduction, which living cells bring about.)
The test system of test [1] is HeLa. The test is described as follows: cells. Conditions: Homo sapiens, 48 h.
Description: Cytotoxicity against human HeLa cells after 48 hrs by MTT assay
Another test has as its system MCF7. The test is described as follows: cells. Conditions: Homo sapiens, MCF7, 48 h.
A further test relates to B16. The test is described as follows: Cytotoxicity against […] cells after 48 hrs by MTT assay. The test is classed as functional, cell-based. Conditions: Mus musculus, B16, 48 h.
For test [2], the system named is HeLa. The test is described as follows: Induction of apoptosis in human HeLa cells assessed as nuclear fragmentation at 0.5 uM after 48 hrs by Hoechst 33342 staining based fluorescent microscopic method. The test is classed as functional, cell-based.
In the next test the target is Tubulin (Homo sapiens) (UniProt P68371+Q9H4B7+P0DPH7+P68366+Q13509+Q71U36+P04350+Q3ZCM7+P07437+P68363+Q9BQE3+Q6PEY2+Q13885+Q9BVA1+Q9BUF5). The test can be described thus: Inhibition of tubulin polymerization in human HeLa cells assessed as disrupted microtubule organization at 0.5 uM after 48 hrs by immunohistochemical analysis. The test is classed as cell-based.
Test [3] has as its system HeLa. The test is described as follows: Induction of apoptosis in human HeLa cells assessed as […] condensation at 0.5 uM after 48 hrs by Hoechst 33342 staining based fluorescent microscopic method. It is filed as functional, cell-based.
Test [4] concerns HeLa. The test is described as follows: Induction of apoptosis in human HeLa cells assessed as caspase-3 activation at 0.5 uM after 48 hrs by fluorimetric method relative to control. It is filed as functional.
Test [5] deals with HeLa. The test can be described thus: Cell cycle arrest in human HeLa cells assessed as accumulation at G1 phase at 0.5 uM after 48 hrs by propidium iodide staining based flow cytometry (reference value: 62.5%). It is filed as functional.
Test [6] relates to HeLa. The test is described as follows: Cell cycle arrest in human HeLa cells assessed as accumulation at sub-G1 phase at 0.5 uM after 48 hrs by propidium iodide staining based flow cytometry (reference value: 0.9%). It is filed as functional. (Flow cytometry measures light scatter and fluorescence of single cells or particles in a stream.)
The next test is filed under the species Sus scrofa. The test is described as follows: Inhibition of porcine brain tubulin polymerization at 3 uM after 1 hr by fluorescence assay relative to control.
The test system of test [7] is HeLa. The test can be described thus: Cell cycle arrest in human HeLa cells assessed as accumulation at G2/M phase at 0.5 uM after 48 hrs by propidium iodide staining based flow cytometry (reference value: 19.3%). It is filed as functional.
Test [8] concerns HeLa. The test is described as follows: Cell cycle arrest in human HeLa cells assessed as accumulation at S phase at 0.5 uM after 48 hrs by propidium iodide staining based flow cytometry (reference value: 11.3%). The test is classed as functional.

The source made the active and inactive calls. The rule behind the calls is not given here.

In general, IC50 refers to the concentration that inhibits the measured activity by half. Lower therefore signals inhibition by little substance. What is called inhibition is the share of the control response that was lost under treatment.

Description for MCF7: Cytotoxicity against human MCF7 cells after 48 hrs by MTT assay

`COc1ccc2cc(-c3cn(CC(=O)N[C@@H]4c5cc6c(cc5[C@@H](c5cc(OC)c(OC)c(OC)c5)[C@H]5C(=O)OC[C@@H]54)OCO6)nn3)ccc2c1`: the IC50 amounted to 13.6 µM in the test on HT-29, 15.4 µM with HeLa [1], 6.9 µM in the test on MCF7 and 14.3 µM in the test with B16.
`COc1cc([C@@H]2c3cc4c(cc3[C@@H](NC(=O)Cn3cc(-c5ccc(Br)cc5)nn3)[C@H]3COC(=O)[C@H]23)OCO4)cc(OC)c1OC`: the IC50 in the test with HT-29 is 0.1 µM; with HeLa [1], 0.07 µM; with MCF7 it was 0.9 µM; with B16, 10.1 µM. Besides, the outcome in the test on HeLa [2] and in the test with HeLa [3] was Active. In addition, the inhibition entry at Tubulin (Homo sapiens) is “Active”. In addition, the “fold change (FC)” value in the test on HeLa [4] is 4 - 6. Also, the Activity in the test on HeLa [5] was 13.9%; with HeLa [6], 0.1%; in the test with HeLa [7], 62.7%; in the test on HeLa [8], 10.5%. In addition, the inhibition in the test listed under Sus scrofa came out at 48.5%.
Regarding `COc1cc([C@@H]2c3cc4c(cc3[C@@H](NC(=O)Cn3cc(-c5cncn5C)nn3)[C@H]3COC(=O)[C@H]23)OCO4)cc(OC)c1OC`, the IC50 with HT-29 stood at 10.6 µM; in the test with HeLa [1] it was 2.3 µM; with MCF7, 22.4 µM; in the test with B16, 10.8 µM.
For `COc1cc([C@@H]2c3cc4c(cc3[C@@H](NC(=O)Cn3cc(CCC5C(=O)c6ccccc6C5=O)nn3)[C@H]3COC(=O)[C@H]23)OCO4)cc(OC)c1OC`, the IC50 in the test on HT-29 was found to be 18.5 µM; in the test with HeLa [1], 2.6 µM; with MCF7, 7.2 µM; with B16, 14.7 µM.
For `COc1cc([C@@H]2c3cc4c(cc3[C@@H](NC(=O)Cn3cc(-c5ccccc5)nn3)[C@H]3COC(=O)[C@H]23)OCO4)cc(OC)c1OC` the same measures were 20.1 µM, 19.6 µM, 8.1 µM and 21.5 µM.
Turning to `COc1cc([C@@H]2c3cc4c(cc3[C@@H](O[C@@H]3O[C@@H]5CO[C@@H](C)O[C@H]5[C@H](O)[C@H]3O)[C@H]3COC(=O)[C@H]23)OCO4)cc(OC)c1O` [ETOPOSIDE], the half-inhibitory concentration (IC50) in the test with HT-29 is 1.98 µM; in the test on HeLa [1], 2.24 µM; with MCF7, 1.36 µM; with B16, 1.85 µM.
With `COc1cc([C@@H]2c3cc4c(cc3[C@H](O)[C@H]3COC(=O)[C@H]23)OCO4)cc(OC)c1OC` [PODOFILOX], the IC50 is 1.26 µM in the test on HT-29, 2.36 µM with HeLa [1], 3.75 µM in the test with MCF7 and 2.12 µM in the test with B16. For the same molecule, the outcome with HeLa [4] was Active. The inhibition in the test listed under Sus scrofa turned out to be 50.2%.
On to `COc1cc([C@@H]2c3cc4c(cc3[C@@H](NC(=O)Cn3cc(-c5ccc(C(C)(C)C)cc5)nn3)[C@H]3COC(=O)[C@H]23)OCO4)cc(OC)c1OC`, for which the IC50 with HT-29 was found to be 18.6 µM; with HeLa [1] it was 0.9 µM; with MCF7 it was 11.3 µM; with B16, 10.6 µM. Also, the outcome in the test on HeLa [2] and in the test on HeLa [3] was Active. In addition, at Tubulin (Homo sapiens), the inhibition result was “Active”. In addition, the “fold change (FC)” value in the test with HeLa [4] was 4 - 6. Also, the Activity in the test with HeLa [5] is given as 12.5%; in the test on HeLa [6], 0.2%; with HeLa [7], 63.3%; in the test with HeLa [8], 10.1%. The inhibition in the test listed under Sus scrofa stood at 46.4%.
`COc1cc([C@@H]2c3cc4c(cc3[C@@H](NC(=O)Cn3cc(-c5cccc(N)c5)nn3)[C@H]3COC(=O)[C@H]23)OCO4)cc(OC)c1OC`: the IC50 in the test with HT-29 came to 15.6 µM; in the test on HeLa [1], 25.4 µM; in the test with MCF7, 21.9 µM; in the test on B16 it was 22.5 µM.
`COc1cc([C@@H]2c3cc4c(cc3[C@@H](NC(=O)Cn3cc(-c5cccs5)nn3)[C@H]3COC(=O)[C@H]23)OCO4)cc(OC)c1OC`: the IC50 in the test on HT-29 is 19.5 µM; in the test with HeLa [1], 6.5 µM; in the test on MCF7, 8.9 µM; in the test on B16 it was 18.2 µM.
For the molecule `COc1cc([C@@H]2c3cc4c(cc3[C@@H](NC(=O)Cn3cc(-c5ccccn5)nn3)[C@H]3COC(=O)[C@H]23)OCO4)cc(OC)c1OC`, the IC50 in the test with HT-29 stood at 18.4 µM; with HeLa [1] it was 23.6 µM; in the test with MCF7, 14.5 µM; in the test on B16, 19.5 µM.
Take `COc1cc([C@@H]2c3cc4c(cc3[C@@H](NC(=O)Cn3cc(-c5ccc(C)cc5)nn3)[C@H]3COC(=O)[C@H]23)OCO4)cc(OC)c1OC`: the IC50 in the test with HT-29 is 22.5 µM; in the test on HeLa [1], 16.8 µM; in the test on MCF7 it was 17.1 µM; in the test with B16, 23.5 µM.
Consider `COc1ccc(-c2cn(CC(=O)N[C@@H]3c4cc5c(cc4[C@@H](c4cc(OC)c(OC)c(OC)c4)[C@H]4C(=O)OC[C@@H]43)OCO5)nn2)cc1OC`, for which the half-maximal inhibitory concentration (IC50) is 13.9 µM with HT-29, 17.9 µM in the test on HeLa [1], 15.8 µM in the test on MCF7 and 22.4 µM in the test on B16.
For `COc1cc([C@@H]2c3cc4c(cc3[C@@H](NC(=O)Cn3cc(-c5cccc(Cl)c5)nn3)[C@H]3COC(=O)[C@H]23)OCO4)cc(OC)c1OC` the same measures were 17.5 µM, 28.4 µM, 38.2 µM and 23.6 µM.

These data come from ChEMBL document CHEMBL4261551, “Click chemistry-assisted synthesis of triazolo linked podophyllotoxin conjugates as tubulin polymerization inhibitors” (Medchemcomm, 2017).
